Assays:
WI38 cells = assay: Protection from IFNγ and anti-Fas antibody-induced apoptosis (XTT); assay type: cell-based, human; details: 100% when Fas antibody was not treated; for viability ratio: WI38 cells
Description: WI38 cells (human embryonal lung fibroblast) were grown in a medium containing DMEM-10% FBS within 10cm diameter dishes until reaching at confluency. The cells were seeded into a 24-well plate at day 1 and incubated overnight while the volume of medium was maintained to 400µℓ. […] At day 3, each 100 µℓ of test compound was added to the cells after diluting the 10mM stock compound in DMSO to final concentrations of 50, 10, 2, and 0.4 µ M, respectively. The cells were incubated for 2 hrs in order for allowing the compound to enter into the cells and then treated with 40ng/well of anti-Fas antibody(apoptosis was induced 2 hrs after antibody was treated and the incubation was continued overnight). The control was not treated with Fas antibody. […] After coloring, 100-200µℓ of the supernatant was transferred to a 96-well plate and the absorbance at 490 nm was read with ELISA plate reader. For the blank, XTT solution was added to the well containing the medium only. Plotting was determined by comparing with the control group (100% when Fas antibody was not treated).

PARP cleavage = assay: Con A-treated mouse liver: Western blotting of PARP cleavage; assay type: in vivo; details: liver lysate of Con A-treated mice, various doses, Western blot
Description: In this experiment, the cleavage of PARP was identified by the appearance on Western blot analysis of an 85 kDa-cleavage product in hepatic cell lysate obtained from mice treated with Con A and various doses of the compound of formula (I).
Freshly harvested livers treated with Con A or PBS together with various doses of compound 33 were rinsed in cold PBS and homogenized into three volumes per weight of cold PBS containing 1% Nonidet P-40, 0.1 % SDS, 1 mM PMSF, and protease inhibitor cocktail tablet Complete™ (Boehnger Mannheim, used according to manufacturer's instruction). The homogenates were incubated on ice for 30 min. Samples were then centrifuged at 16,000 x g for 30 min at 4°C. Supernatants were transferred to fresh tubes and centrifuged for additional 30 min. Harvested lysates were precleared by incubating with protein G-sepharose (Pharmacia, Uppsala, Sweden) at 4 °C for overnight, gently shaking. Supernatants were harvested by centrifugation at 1000 x g for 30 sec. at 4 °C and separated on 7 % SDS-polyacrylamide gel and transferred to nitrocellulose membrane. Blots were blocked for 1 hr at room temperature in PBS containing 5% skimmed milk and 0.1% Tween 20 under gentle shaking. Membranes were then incubated overnight with 1:1000 diluted monoclonal anti-PARP antibody (Pharmingen) under gentle shaking. […]

[1] = tested on: Con A-induced acute hapatitis mice; assay: Con A-induced acute hepatitis in mice: plasma aminotransferase activity; assay type: in vivo, Balb/c mice
Description: Female 6-week-old Balb/c mice (Charles River Laboratory, Osaka, Japan) were kept at 22 °C and 55% relative humidity in a 12-h day/night rhythm with free access to food and water. Con A was dissolved in pyrogen-free saline to a concentration of 2.5 mg/ml and was injected via the tail vein in an amount of 20mg/kg based on Con A. The animals were i.p. injected twice with compound 33 dissolved into a vehicle which consists of olive oil and 10% DMSO, or a vehicle alone, at 1 hr before and 4h after Con A injection. Animals were sacrificed by cervical dislocation at 24 hrs after Con A injection to obtain liver and blood samples.
Blood samples obtained at step 1 were collected at 24h after Con A injection. Plasma AST and ALT activity were measured using Autokit (Youngdong Pharmaceutical Co., Seoul, Korea) following manufacturer's instruction.

[2] = tested on: hepatocytes in ConA-treated mouse liver; assay: Con A-treated mouse liver: histologic examination and detection of apoptosis (H&E, TUNEL); assay type: in vivo; details: ConA-treated mice, compound 33 4, 20, 100mg/kg
Description: The present inventors estimated the prevalence of apoptotic cells in the mouse liver to certify the apoptosis-blocking effect of the compound of the present invention specifically in hepatocytes. Mice were treated ConA in the presence or absence of various dosages of compound 33 [A and G: ConA and vehicle treatment, B and H: ConA and compound 33 4mg/kg treatment, C and I: ConA and compound 33 20mg/kg treatment, D and J: ConA and compound 33 100mg/kg treatment] to prepare frozen liver sections. Also, mice were treated with PBS and vehicle (E and K), or PBS and compound 33 100mg/kg (F and L) to prepare frozen liver sections. Freshly excised mouse liver was immediately immersed in 25 % sucrose solution at 4 °C for overnight, then frozen in liquid nitrogen, and cryosectioned into 4 µm.
For histological examination, liver sections were fixed in 1% buffered paraformaldehyde and stained with hematoxilin & eosin (Fig. 6A to F). To detect apoptotic cells in liver, frozen liver was stained using an ApopTag in situ apoptosis peroxidase detection kit (terminal deoxynucleotidyl transferase-mediated dUTP nick end labeling: TUNEL assay) (Oncor, Gaithersburg, MD) and DAKO liquid DAB (DAKO, Carpinteria, CA)(Fig. 6G to L). Staining was conducted according to manufacturer's instruction. After completion of staining, the samples were observed under an optical microscope. […]

[3] = tested on: Recombinant human caspase; assay: Inhibition of caspase activity in cell free system (chromogenic pNA substrates); assay type: biochemical; details: 100 µM compound, caspase-1, -2, -3, -4, -6, -7, -8 and -9, 200 µM chromogenic substrate, 37°C
Description: The pharmacological efficacy of the compound according to the present invention was evaluated by the following experiments. Con A was purchased from Boehringer Mannheim GmbH (Mannheim, Germany). Peptide-based substrates of caspases (Ac-YVAD-pNA for caspase-1, Ac-VDVAD for caspase-2, Ac-DEVD-pNA for caspase-3, 7, 8, and 9, Ac-LEVD-pNA for caspase-4, and Ac-VEID-pNA for caspase-6) and peptide-based caspase inhibitors (Ac-DEVD-fmk, z-VAD-CHO) were purchased from Alexis Co. (San Diego, CA). Ac-DEVD-CHO and z-DEVD-cmk were purchased from Bachem; Anti Fas antibody was purchased from Oncor (Cat#A8050); WI38 cell was available from ATCC; IFN-gamma was purchased from LG Pharmaceuticals (Korea). All cell culture-media and supplements were purchased from Gibco BRL (Tsuen Wan, Hong Kong) unless mentioned otherwise. […]
Caspase activity was tested by measuring proteolytic cleavage of peptide-based chromogenic substrate by each enzyme. […] Aliquots of the enzyme (2 µℓ containing catalytic activity of 0.2 absorbance at 405 nm/h) were mixed with 150 µℓ of 200 µM chromogenic substrate in the presence or absence of 100 µM compound 33 in 96-well plates. […] The absorbance of enzymatically released pNA was measured discontinuously at 405 nm in a microplate reader for I hr. The caspase activity was calculated from initial velocity (mean± SE)(n=4, in which n represents the number of repeated experiment).

## CC(C)[C@H](NC(=O)c1cccc2ccccc12)C1=NOC(Cc2ccccc2)(C(=O)N[C@@H](CC(=O)O)C(=O)COC(=O)c2c(Cl)cccc2Cl)C1 (stereo partly drawn) [Compound 33, (3S)-3-{3-[2-methyl-(1S)-1-(1-naphthalenecarbonylamino)-propyl]-5-phenylmethyl-4,5-dihydro-isoxazole-5-carbonylamino}-4-keto-5-(2,6-dichlorobenzoyloxy)-pentanoic acid]
WI38 cells; Homo sapiens, WI-38, WI38 cells, Conc. 0.4 µM, read-out: viability ratio
  viability at 0.4 µM: 15.5%
WI38 cells; Homo sapiens, WI-38, WI38 cells, Conc. 2 µM, read-out: viability ratio
  viability at 2 µM: 64.4%
WI38 cells; Homo sapiens, WI-38, WI38 cells, Conc. 10 µM, read-out: viability ratio
  viability at 10 µM: 92.7%
WI38 cells; Homo sapiens, WI-38, WI38 cells, Conc. 50 µM, read-out: viability ratio
  viability at 50 µM: 100%
WI38 cells; Conc. 50 µM, 50 µM
  viability ratio: 100%
WI38 cells; Conc. 50 µM, listed as Comp 33, 50 µM
  viability ratio: 100.21%
PARP cleavage
  PARP cleavage (85 kDa-cleavage product) caused by Con A-induced apoptotic death of hepatic cells: gradually reduced as dose of compound 33 is increased
[1]; 4mg/kg compound 33, second experiment (AST p=0.2972, ALT p=0.1378)
  AST and ALT activity, difference to Con A/vehicle group: did not reached at statistically significant level
[1]; 20 mg/kg compound 33 (AST p=0.0174, ALT p=0.0011)
  AST and ALT activities compared with ConA/vehicle group: definitely reduced
[1]; compound alone without Con A, first experiment, not statistically significant (p=0.1033)
  AST activity by the compound itself (liver toxicity): slightly increased AST activity by itself
[1]; i.p. twice, 1 hr before and 4h after Con A 20mg/kg i.v., blood at 24h, across doses
  serum AST and ALT activity elevated by ConA: suppressed the elevated enzyme activities in a dose-dependent manner
[2]
  apoptotic lesions in liver: reduced dose-dependently
  cellular histology of liver: gradually recovered with increasing dose
[3]
  inhibition of recombinant caspase activity: almost completely inhibited all tested caspase activity, only except for caspase 2

Source: patent EP1212309B1, “CASPASE INHIBITOR” (LG Chem Investment, Ltd., priority 1999, dated 2001)
